In publication PMC10726920 (Cancer Medicine, 2023):

Test system: patients with acute lymphoblastic leukemia
Experiment: Adverse events (CTCAE version 4.0), Phase II study NCI-9775 of sapanisertib monotherapy
Type: in vivo
Conditions: treatment-related; 15 evaluable
Experimental: Responders could continue on the same dose or proceed to allogeneic hematopoietic cell transplant if available. Non‐responders (but tolerating drug) could increase their dose to 4 mg orally for 21 days every 28 days (dose level + 1) starting in Cycle 3 and 4 mg orally continuously (dose level + 2) starting in Cycle 5 (if they tolerated dose level + 1). Dose reduction was recommended for toxicity (dose level − 1: 2 mg daily for 21 days every 28 days; dose level − 2: 2 mg daily for 5 days/week for 3 weeks every 4 weeks). […] Intrathecal chemotherapy was allowed per institutional standard policies. In‐home blood glucose monitoring was performed daily to monitor blood sugar (a glucometer was given to every patient on the study). Discontinuation of therapy was recommended for disease progression, severe toxicity, lack of response, proceeding to hematopoietic cell transplant, or prolonged delay of the subsequent cycle (>1 month delay for therapy‐related toxicity or >2 months delay for unrelated toxicity).
The primary endpoint was the proportion of successes, which was estimated by the number of successes divided by the total number of evaluable patients. Secondary endpoints of duration of response (CR or CRi) and overall survival (OS) were evaluated using Kaplan–Meier techniques; the frequency of proceeding to allogeneic stem cell transplant after achieving response and adverse events (AEs), as evaluated using reported the NCI Common Terminology Criteria for Adverse Events (CTCAE) version 4.0, were presented using descriptive statistics.

With CC(C)n1nc(-c2ccc3oc(N)nc3c2)c2c(N)ncnc21 [sapanisertib] the “Aspartate aminotransferase increased grade 2” value was 0 (0) N (%), the “Aspartate aminotransferase increased grade 3” value was 0 (0) N (%) and the “Aspartate aminotransferase increased grade 4” value was 0 (0) N (%). The “Aspartate aminotransferase increased grade 5” value was 0 (0) N (%), the “Bloating grade 1” value was 1 (7) N (%) and the “Bloating grade 2” value was 0 (0) N (%). For the same molecule, the “Bloating grade 3” value was 0 (0) N (%), the “Bloating grade 4” value was 0 (0) N (%) and the “Bloating grade 5” value was 0 (0) N (%). The “Blood bilirubin increased grade 1” value was 1 (7) N (%), the “Blood bilirubin increased grade 2” value was 0 (0) N (%) and the “Blood bilirubin increased grade 3” value was 1 (7) N (%). The “Blood bilirubin increased grade 4” value was 0 (0) N (%), the “Blood bilirubin increased grade 5” value was 0 (0) N (%) and the “Confusion grade 1” value was 0 (0) N (%). For the same molecule, the “Confusion grade 2” value was 0 (0) N (%), the “Confusion grade 3” value was 1 (7) N (%) and the “Confusion grade 4” value was 0 (0) N (%). For the same molecule, the “Confusion grade 5” value was 0 (0) N (%), the “Constipation grade 1” value was 1 (7) N (%) and the “Constipation grade 2” value was 0 (0) N (%). For the same molecule, the “Constipation grade 3” value was 0 (0) N (%), the “Constipation grade 4” value was 0 (0) N (%) and the “Constipation grade 5” value was 0 (0) N (%). The “Cough grade 1” value was 1 (7) N (%), the “Cough grade 2” value was 0 (0) N (%) and the “Cough grade 3” value was 0 (0) N (%). The “Cough grade 4” value was 0 (0) N (%), the “Cough grade 5” value was 0 (0) N (%) and the “Delirium grade 1” value was 0 (0) N (%). For the same molecule, the “Delirium grade 2” value was 0 (0) N (%), the “Delirium grade 3” value was 1 (7) N (%) and the “Delirium grade 4” value was 0 (0) N (%). The “Delirium grade 5” value was 0 (0) N (%), the “Diarrhea grade 1” value was 1 (7) N (%) and the “Diarrhea grade 2” value was 0 (0) N (%). The “Diarrhea grade 3” value was 0 (0) N (%), the “Diarrhea grade 4” value was 0 (0) N (%) and the “Diarrhea grade 5” value was 0 (0) N (%). The “Dysgeusia grade 1” value was 1 (7) N (%), the “Dysgeusia grade 2” value was 0 (0) N (%) and the “Dysgeusia grade 3” value was 0 (0) N (%). For the same molecule, the “Dysgeusia grade 4” value was 0 (0) N (%), the “Dysgeusia grade 5” value was 0 (0) N (%) and the “Edema limbs grade 1” value was 1 (7) N (%). For the same molecule, the “Edema limbs grade 2” value was 0 (0) N (%), the “Edema limbs grade 3” value was 0 (0) N (%) and the “Edema limbs grade 4” value was 0 (0) N (%). The “Edema limbs grade 5” value was 0 (0) N (%), the “Fall grade 1” value was 0 (0) N (%) and the “Fall grade 2” value was 1 (7) N (%). For the same molecule, the “Fall grade 3” value was 0 (0) N (%), the “Fall grade 4” value was 0 (0) N (%) and the “Fall grade 5” value was 0 (0) N (%). The “Fatigue grade 1” value was 1 (7) N (%), the “Fatigue grade 2” value was 0 (0) N (%) and the “Fatigue grade 3” value was 1 (7) N (%). The “Fatigue grade 4” value was 0 (0) N (%), the “Fatigue grade 5” value was 0 (0) N (%) and the “Febrile neutropenia grade 1” value was 0 (0) N (%). For the same molecule, the “Febrile neutropenia grade 2” value was 0 (0) N (%), the “Febrile neutropenia grade 3” value was 1 (7) N (%) and the “Febrile neutropenia grade 4” value was 0 (0) N (%). The “Febrile neutropenia grade 5” value was 0 (0) N (%), the “Fibrinogen decreased grade 1” value was 0 (0) N (%) and the “Fibrinogen decreased grade 2” value was 0 (0) N (%). For the same molecule, the “Fibrinogen decreased grade 3” value was 1 (7) N (%), the “Fibrinogen decreased grade 4” value was 0 (0) N (%) and the “Fibrinogen decreased grade 5” value was 0 (0) N (%). For the same molecule, the “Hyperglycemia grade 1” value was 0 (0) N (%), the “Hyperglycemia grade 2” value was 0 (0) N (%) and the “Hyperglycemia grade 3” value was 2 (13) N (%). For the same molecule, the “Hyperglycemia grade 4” value was 0 (0) N (%), the “Hyperglycemia grade 5” value was 0 (0) N (%) and the “Hypertriglyceridemia grade 1” value was 1 (7) N (%). The “Hypertriglyceridemia grade 2” value was 0 (0) N (%), the “Hypertriglyceridemia grade 3” value was 0 (0) N (%) and the “Hypertriglyceridemia grade 4” value was 0 (0) N (%). The “Hypertriglyceridemia grade 5” value was 0 (0) N (%), the “Leukocytosis grade 1” value was 0 (0) N (%) and the “Leukocytosis grade 2” value was 0 (0) N (%). The “Leukocytosis grade 3” value was 1 (7) N (%), the “Leukocytosis grade 4” value was 0 (0) N (%) and the “Leukocytosis grade 5” value was 0 (0) N (%). The “Lymphocyte count decreased grade 1” value was 0 (0) N (%), the “Lymphocyte count decreased grade 2” value was 0 (0) N (%) and the “Lymphocyte count decreased grade 3” value was 2 (13) N (%). The “Lymphocyte count decreased grade 4” value was 0 (0) N (%), the “Lymphocyte count decreased grade 5” value was 0 (0) N (%) and the “Mucositis oral grade 1” value was 0 (0) N (%). The “Mucositis oral grade 2” value was 0 (0) N (%), the “Mucositis oral grade 3” value was 3 (20) N (%) and the “Mucositis oral grade 4” value was 0 (0) N (%). The “Mucositis oral grade 5” value was 0 (0) N (%), the “Neoplasms grade 1” value was 0 (0) N (%) and the “Neoplasms grade 2” value was 0 (0) N (%). The “Neoplasms grade 3” value was 1 (7) N (%), the “Neoplasms grade 4” value was 0 (0) N (%) and the “Neoplasms grade 5” value was 0 (0) N (%). The “Neutrophil count decreased grade 1” value was 0 (0) N (%), the “Neutrophil count decreased grade 2” value was 0 (0) N (%) and the “Neutrophil count decreased grade 3” value was 0 (0) N (%). The “Neutrophil count decreased grade 4” value was 1 (7) N (%), the “Neutrophil count decreased grade 5” value was 0 (0) N (%) and the “Oral pain grade 1” value was 1 (7) N (%). For the same molecule, the “Oral pain grade 2” value was 0 (0) N (%), the “Oral pain grade 3” value was 0 (0) N (%) and the “Oral pain grade 4” value was 0 (0) N (%). For the same molecule, the “Oral pain grade 5” value was 0 (0) N (%), the “Paresthesia grade 1” value was 1 (7) N (%) and the “Paresthesia grade 2” value was 0 (0) N (%). The “Paresthesia grade 3” value was 0 (0) N (%), the “Paresthesia grade 4” value was 0 (0) N (%) and the “Paresthesia grade 5” value was 0 (0) N (%). The “Pharyngolaryngeal pain grade 1” value was 0 (0) N (%), the “Pharyngolaryngeal pain grade 2” value was 1 (7) N (%) and the “Pharyngolaryngeal pain grade 3” value was 0 (0) N (%). The “Pharyngolaryngeal pain grade 4” value was 0 (0) N (%), the “Pharyngolaryngeal pain grade 5” value was 0 (0) N (%) and the “Platelet count decreased grade 1” value was 0 (0) N (%). For the same molecule, the “Platelet count decreased grade 2” value was 0 (0) N (%), the “Platelet count decreased grade 3” value was 1 (7) N (%) and the “Platelet count decreased grade 4” value was 3 (20) N (%). For the same molecule, the “Platelet count decreased grade 5” value was 0 (0) N (%), the “Pneumonitis grade 1” value was 0 (0) N (%) and the “Pneumonitis grade 2” value was 0 (0) N (%). For the same molecule, the “Pneumonitis grade 3” value was 1 (7) N (%), the “Pneumonitis grade 4” value was 0 (0) N (%) and the “Pneumonitis grade 5” value was 0 (0) N (%). For the same molecule, the “Pruritus grade 1” value was 1 (7) N (%), the “Pruritus grade 2” value was 0 (0) N (%) and the “Pruritus grade 3” value was 0 (0) N (%). The “Pruritus grade 4” value was 0 (0) N (%), the “Pruritus grade 5” value was 0 (0) N (%) and the “Resp, thoracic, mediastinal grade 1” value was 0 (0) N (%). For the same molecule, the “Resp, thoracic, mediastinal grade 2” value was 0 (0) N (%), the “Resp, thoracic, mediastinal grade 3” value was 0 (0) N (%) and the “Resp, thoracic, mediastinal grade 4” value was 1 (7) N (%). The “Resp, thoracic, mediastinal grade 5” value was 0 (0) N (%), the “Vaginal inflammation grade 1” value was 0 (0) N (%) and the “Vaginal inflammation grade 2” value was 1 (7) N (%). For the same molecule, the “Vaginal inflammation grade 3” value was 0 (0) N (%), the “Vaginal inflammation grade 4” value was 0 (0) N (%) and the “Vaginal inflammation grade 5” value was 0 (0) N (%). The “Vomiting grade 1” value was 1 (7) N (%), the “Vomiting grade 2” value was 0 (0) N (%) and the “Vomiting grade 3” value was 0 (0) N (%). The “Vomiting grade 4” value was 0 (0) N (%), the “Vomiting grade 5” value was 0 (0) N (%) and the “Wheezing grade 1” value was 0 (0) N (%). The “Wheezing grade 2” value was 1 (7) N (%), the “Wheezing grade 3” value was 0 (0) N (%) and the “Wheezing grade 4” value was 0 (0) N (%). The “Wheezing grade 5” value was 0 (0) N (%), the “White blood cell decreased grade 1” value was 0 (0) N (%) and the “White blood cell decreased grade 2” value was 0 (0) N (%). The “White blood cell decreased grade 3” value was 0 (0) N (%), the “White blood cell decreased grade 4” value was 2 (13) N (%) and the “White blood cell decreased grade 5” value was 0 (0) N (%).
